The results in this text go back to ChEMBL document CHEMBL1201862, “PubChem BioAssay data set” (2004).

Among the test systems are 786-0; CAKI-1; EKVX; HCT-15; HL-60; HOP-62; KM12; NCI-H460; OVCAR-4; OVCAR-8; SF-268; SF-539; SN12C; SNB-19; U-251; UACC-257; SR; NCI-H522.
Holding throughout (assay): NCI-60 cell line screen, 48 h

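Five compound concentrations were applied to cells in 96-well plates for 48 hours; endpoints were derived by simple linear interpolation of the resulting dose-response curve. GI50 is the concentration that inhibits growth by half.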 Activity calls are given as the source filed them. Rule as the data show it: active = GI50 up to about 1.1 µM and inactive = higher.

Regarding `CCCCCCCCCCCCCC(=O)OC1C(CO)OC(=O)C1O` (stereo unspecified), the GI50 with 786-0 was > 100 µM (inactive); in the test on CAKI-1, > 100 µM (inactive); in the test on EKVX, > 100 µM (inactive); in the test on HCT-15, greater than 100 µM; with HL-60, 34.3 µM (inactive); in the test with HOP-62, > 100 µM (inactive). The GI50 in the test on KM12, in the test with NCI-H460, in the test on OVCAR-4, in the test with OVCAR-8, in the test with SF-268 and in the test with SF-539 was > 100 µM (inactive) in each case. In addition, the GI50 with SN12C was > 100 µM (inactive); with SNB-19, 71.4 µM (inactive); in the test on U-251, 82.8 µM (inactive); in the test on UACC-257, > 100 µM (inactive).

As to `COc1cc([C@H]2c3cc4c(cc3[C@H](NCc3ccc([N+](=O)[O-])cc3)C3COC(=O)[C@H]32)OCO4)cc(OC)c1O` (stereo partly specified), the GI50 with 786-0 was 0.877 µM (active); in the test on CAKI-1, 0.424 µM (active); in the test with EKVX, 3.18 µM (inactive); with HCT-15, 1.61 µM; in the test on HL-60 it was 1.02 µM (active); with HOP-62 it was 0.26 µM (active). Besides, the GI50 is 2.44 µM (inactive) with KM12; < 0.0282 µM (active) in the test with NCI-H460; 72.8 µM (inactive) in the test with OVCAR-4; 1.63 µM (inactive) in the test with OVCAR-8; 1.47 µM (inactive) in the test on SF-268; 0.745 µM (active) with SF-539. The GI50 was 0.807 µM (active) in the test on SN12C; 1.01 µM (active) in the test with SNB-19; 0.0333 µM (active) with SR; 0.655 µM (active) in the test with U-251; 7.96 µM (inactive) in the test on UACC-257.

`Cc1ccccc1NC(=O)c1cc2cc(/N=N/c3ccccc3C(=O)O)ccc2oc1=O`: the GI50 is 27.1 µM (inactive) in the test with 786-0; 48.6 µM (inactive) with EKVX; 10.6 µM in the test on HCT-15; 19.5 µM (inactive) in the test on HL-60; 21.4 µM (inactive) in the test on HOP-62; 12.6 µM (inactive) with KM12. Also, the GI50 in the test with NCI-H460 is 21.1 µM (inactive); in the test with NCI-H522, 12.3 µM (inactive); in the test on OVCAR-8, 29.6 µM (inactive); in the test on SF-539, 18 µM (inactive); in the test on SN12C it was 18.6 µM (inactive); in the test with SNB-19 it was > 10 µM (inactive). The GI50 in the test with U-251 is 21.4 µM (inactive); in the test on UACC-257, 10.3 µM (inactive).

Regarding `N#Cc1c2c(c(N=[N+]=[N-])n3c1nc1ccccc13)CCCC2`, the GI50 in the test on 786-0 was 1.9 µM (inactive); in the test with CAKI-1, 2.72 µM (inactive); with EKVX, 16.9 µM (inactive); with HCT-15, 2.07 µM; in the test on HL-60, 2.32 µM (inactive); in the test with HOP-62, 16.2 µM (inactive). For the same molecule, the GI50 was 2.29 µM (inactive) in the test with KM12; 1.92 µM (inactive) in the test with NCI-H460; 2.49 µM (inactive) in the test on OVCAR-4; 1.69 µM (inactive) in the test with OVCAR-8; 3.49 µM (inactive) in the test with SF-268; 1.93 µM (inactive) in the test on SF-539. For the same molecule, the GI50 in the test on SN12C is 2.14 µM (inactive); in the test with SNB-19, 2.55 µM (inactive); with SR, 2.1 µM (inactive); with U-251, 3.39 µM (inactive); in the test with UACC-257, 1.71 µM (inactive).

On to `Cn1c(=O)nc2n(-c3ccc(Cl)cc3)c(-c3ccccc3)c(-c3ccccc3)nc-2c1=O`, for which the GI50 was 29.8 µM (inactive) in the test on 786-0; 24.8 µM (inactive) in the test with CAKI-1; 47 µM (inactive) with EKVX; 22.5 µM with HCT-15; 18.3 µM (inactive) with HL-60; 25.3 µM (inactive) in the test on HOP-62. For the same molecule, the GI50 with KM12 is 23.8 µM (inactive); in the test with NCI-H460 it was 24.7 µM (inactive); in the test with NCI-H522, 36.7 µM (inactive); with OVCAR-4 it was 29.5 µM (inactive); with OVCAR-8 it was 37.5 µM (inactive); in the test on SF-268 it was 23.6 µM (inactive). The GI50 is 23 µM (inactive) in the test with SF-539; 33.6 µM (inactive) with SN12C; 32.1 µM (inactive) in the test with SNB-19; 27.5 µM (inactive) in the test on U-251; 24.3 µM (inactive) in the test on UACC-257.

Turning to `O=C(O)C1=C(C(=O)Nc2ccc(NC(=O)C3=C(C(=O)O)C4C=CC3C4)cc2)C2C=CC1C2`, the GI50 with 786-0 is > 100 µM (inactive); in the test on CAKI-1 it was > 100 µM (inactive); in the test on EKVX, > 100 µM (inactive); in the test with HCT-15 it was greater than 100 µM; in the test on HL-60, > 100 µM (inactive); in the test on HOP-62, > 100 µM (inactive). For the same molecule, the GI50 in the test on KM12, in the test on NCI-H460, in the test on OVCAR-4, with OVCAR-8, in the test with SF-268 and in the test with SF-539 was > 100 µM (inactive) throughout. Also, the GI50 with SN12C, in the test on SNB-19, with SR, in the test with U-251 and in the test on UACC-257 was > 100 µM (inactive) each time.

For the molecule `CC1=C(C(=O)CC(=O)C(=O)NC2C3CC4CC(C3)CC2C4)Sc2ccccc2N1` (stereo unspecified), the GI50 was > 100 µM (inactive) in the test on 786-0; 99.1 µM (inactive) with CAKI-1; > 100 µM (inactive) with EKVX; greater than 71.4 µM in the test with HCT-15; > 100 µM (inactive) with HL-60; > 100 µM (inactive) in the test with HOP-62. In addition, the GI50 in the test on KM12 is > 86.3 µM (inactive); in the test on NCI-H460 it was > 100 µM (inactive); in the test with NCI-H522, 97.5 µM (inactive); in the test on OVCAR-4, > 100 µM (inactive); with OVCAR-8, > 100 µM (inactive); in the test with SF-268, > 94.8 µM (inactive). Further, the GI50 in the test on SF-539, with SN12C, with SNB-19, in the test on U-251 and with UACC-257 was > 100 µM (inactive) each time.

As to `CCCCOC(=O)NC(=O)c1cn(C2CCCCC2)c(=O)[nH]c1=O`, the GI50 in the test on 786-0 was 18.6 µM (inactive); with CAKI-1, > 10 µM (inactive); with EKVX it was > 100 µM (inactive); in the test on HCT-15 it was greater than 100 µM; in the test on HL-60 it was > 100 µM (inactive); with HOP-62, 25.3 µM (inactive). The GI50 with KM12 was 86.1 µM (inactive); in the test with NCI-H460 it was > 100 µM (inactive); with NCI-H522, 26.9 µM (inactive); with OVCAR-4, 21.8 µM (inactive); with OVCAR-8, 42.9 µM (inactive); in the test on SF-268, 30.8 µM (inactive). Further, the GI50 with SF-539 is 18.5 µM (inactive); in the test with SN12C, > 100 µM (inactive); with SNB-19, 26.5 µM (inactive); with U-251 it was 28.4 µM (inactive); with UACC-257, > 100 µM (inactive).

Regarding `CC(C)=CC(=O)N(C)C1C2CN3CCC(O2)C13` (stereo unspecified), the GI50 in the test on 786-0 was > 100 µM (inactive); in the test on CAKI-1, > 100 µM (inactive); in the test with EKVX, > 100 µM (inactive); with HCT-15, greater than 100 µM; in the test with HL-60, > 100 µM (inactive); with HOP-62, > 100 µM (inactive). The GI50 with KM12, with NCI-H460, in the test on NCI-H522, in the test on OVCAR-4, in the test on OVCAR-8 and in the test on SF-268 was > 100 µM (inactive) in each case. Also, the GI50 with SF-539, in the test on SN12C, in the test on SNB-19, in the test with U-251 and in the test with UACC-257 was > 100 µM (inactive) each time.

For `CNc1nnnn1C1OC(CO)C(O)C1O` (stereo unspecified), the GI50 was > 100 µM (inactive) with 786-0; > 100 µM (inactive) with CAKI-1; > 100 µM (inactive) in the test on EKVX; greater than 100 µM with HCT-15; > 100 µM (inactive) in the test on HOP-62; > 100 µM (inactive) in the test on KM12. Further, the GI50 with NCI-H460, in the test with NCI-H522, in the test with OVCAR-8, in the test on SF-268, in the test on SF-539 and in the test with SN12C was > 100 µM (inactive) in each case. The GI50 with U-251 and in the test on UACC-257 was > 100 µM (inactive) each time.

As for `CCN(CC)C(=O)CC12CCCCC1=Nc1ccccc12` (stereo unspecified), the GI50 was > 100 µM (inactive) in the test on 786-0; > 100 µM (inactive) in the test on CAKI-1; > 100 µM (inactive) in the test on EKVX; greater than 100 µM in the test with HCT-15; > 100 µM (inactive) in the test on HL-60; > 100 µM (inactive) in the test on HOP-62. In addition, the GI50 in the test with KM12, with NCI-H460, in the test on OVCAR-4, in the test with OVCAR-8, in the test on SF-539 and in the test with U-251 was > 100 µM (inactive) throughout. For the same molecule, the GI50 with UACC-257 was > 100 µM (inactive).

For the molecule `Cc1ccc(S(=O)(=O)OCC23CCC(CC2)C2CC23)cc1` (stereo unspecified), the GI50 in the test with 786-0 was 61.2 µM (inactive); in the test with CAKI-1 it was 49.8 µM (inactive); in the test on HCT-15, 47.6 µM; in the test with HL-60, 17.4 µM (inactive); with HOP-62, 48.3 µM (inactive); with NCI-H460, 42.4 µM (inactive). For the same molecule, the GI50 in the test with OVCAR-4 is 46 µM (inactive); with OVCAR-8, 59.3 µM (inactive); with SF-268, 37.5 µM (inactive); with SN12C, 45.4 µM (inactive); in the test with SNB-19, 96.6 µM (inactive); in the test with SR, 30.2 µM (inactive). For the same molecule, the results for the GI50 with U-251 and with UACC-257 were 50.9 µM (inactive) and 28.6 µM (inactive), respectively.

For `S=C(N/N=C/c1ccco1)NC12CC3CC(CC(C3)C1)C2`, the GI50 is 62.7 µM (inactive) in the test with 786-0; > 100 µM (inactive) in the test on CAKI-1; > 100 µM (inactive) with EKVX; 47.4 µM with HCT-15; > 100 µM (inactive) in the test with HOP-62; > 100 µM (inactive) with KM12. For the same molecule, the GI50 was 66.2 µM (inactive) with NCI-H460; 36.7 µM (inactive) with NCI-H522; 65.3 µM (inactive) in the test on OVCAR-4; > 100 µM (inactive) in the test on OVCAR-8; > 100 µM (inactive) in the test on SF-268; > 100 µM (inactive) in the test with SF-539. Moreover, the GI50 is > 100 µM (inactive) in the test with SN12C, > 100 µM (inactive) in the test with SNB-19, 73.8 µM (inactive) in the test with U-251 and 32.2 µM (inactive) in the test with UACC-257.
